Measured values taken from patent publication US20110039721A1, “METHOD FOR PREDICTION ABOUT CARCINOGENICITY OF SUBSTANCE IN RODENT” (Chemicals Evaluation and Research Institute, priority 2007, published 2011).

System: mRNA expressed from the genes (A) to (D) in rat liver
Assay: Behavior of genes (mRNA expression level, oligo-DNA microarray) in rat liver after 28-day oral administration
Type: in vivo
Description: A test solution was prepared by dissolving each of the carcinogens and the non-carcinogens shown in Tables 2 to 6 in the corresponding solvent shown in Tables 2 to 6. Each of the thus prepared test solutions and the solvents used for the preparation was administered by oral gavage to rats in each group. As the rats, male rats (F344 SPF rats) at 5 weeks of age obtained from Charles River Laboratories Japan, Inc. were used. The animals were divided into groups, each containing four individuals. The volume of the solvent administered to the vehicle control group was set to the same volume as that of the test solution administered to the carcinogen administration group or the non-carcinogen administration group. The administration of the test solution or the solvent was performed once daily for 28 days. Apiece was excised from the liver of each of the rats after a lapse of 28 days from the initiation of the administration, and the total RNA was extracted and purified.
The expression level of mRNA was compared between each of the chemical substance administration groups and the corresponding vehicle control group, and genes that satisfy the requirements described in (A) to (D) were selected, respectively.
The case where the expression level of mRNA in the carcinogen administration group or the non-carcinogen administration group is 1.5 times or more or 1/1.5 or less of the expression level of the corresponding mRNA expressed in the control group was determined to be significant. In this connection, the determination as to whether or not the change is significant was performed by taking into consideration the direction of increase or decrease in the expression level. In the case where the direction of increase or decrease is different as compared with the case where another carcinogen was administered, the change was determined to be not significant.

[1] = (C), Unigene Rn.120914, defined direction +, rat liver, oral once daily 28 days
[2] = gene group (A), Unigene No. Rn.167075, mRNA vs vehicle control group
[3] = gene group (C), Unigene No. Rn.120914, mRNA vs vehicle control group

CC(C)[N+](=O)[O-] [TS013, 2-Nitropropane]
Behavior of gene caused by administration of chemical substance, Gene No. 4846 ((A), Unigene Rn.144554, defined direction +, rat liver, oral once daily 28 days): + | Behavior of gene caused by administration of chemical substance, Gene No. 4218 ((A), Unigene Rn.167075, defined direction +, rat liver, oral once daily 28 days, significant = 1.5 times or more or 1/1.5 or less of control): + | Behavior of gene caused by administration of chemical substance, Gene No. 2026 ((A), Unigene Rn.167075, defined direction −, rat liver, oral once daily 28 days): + | Behavior of gene caused by administration of chemical substance, Gene No. 6182 ((A), Unigene Rn.5834, defined direction +, rat liver, oral once daily 28 days): + | Behavior of gene caused by administration of chemical substance, Gene No. 5600 ((A), Unigene Rn.9836, defined direction +, rat liver, oral once daily 28 days): + | Behavior of gene caused by administration of chemical substance, Gene No. 1494 ((B), Unigene Rn.1430, defined direction −, rat liver, oral once daily 28 days): + | Behavior of gene caused by administration of chemical substance, Gene No. 2045 ((B), Unigene Rn.19329, defined direction +, rat liver, oral once daily 28 days): − | Behavior of gene caused by administration of chemical substance, Gene No. 2203 ((B), Unigene Rn.21240, defined direction +, rat liver, oral once daily 28 days): − | Behavior of gene caused by administration of chemical substance, Gene No. 533 ((C), Unigene Rn.106184, defined direction +, rat liver, oral once daily 28 days): + | Behavior of gene caused by administration of chemical substance, Gene No. 725 ((C), Unigene Rn.108075, defined direction −, rat liver, oral once daily 28 days): + | Behavior of gene caused by administration of chemical substance, Gene No. 1163 ((C), Unigene Rn.11766, defined direction +, rat liver, oral once daily 28 days): − | Behavior of gene caused by administration of chemical substance, Gene No. 4973 ((C), Unigene Rn.118529, defined direction −, rat liver, oral once daily 28 days): + | Behavior of gene caused by administration of chemical substance, Gene No. 4095 ((C), Unigene Rn.119024, defined direction −, rat liver, oral once daily 28 days): − | Behavior of gene caused by administration of chemical substance, Gene No. 1334 [1]: − | Behavior of gene caused by administration of chemical substance, Gene No. 6620 [1]: − | Behavior of gene caused by administration of chemical substance, Gene No. 6303 ((C), Unigene Rn.123063, defined direction −, rat liver, oral once daily 28 days): + | Behavior of gene caused by administration of chemical substance, Gene No. 5878 ((C), Unigene Rn.143213, defined direction −, rat liver, oral once daily 28 days): − | Behavior of gene caused by administration of chemical substance, Gene No. 1131 ((C), Unigene Rn.144946, defined direction −, rat liver, oral once daily 28 days): − | Behavior of gene caused by administration of chemical substance, Gene No. 1562 ((C), Unigene Rn.14744, defined direction −, rat liver, oral once daily 28 days): + | Behavior of gene caused by administration of chemical substance, Gene No. 1741 ((C), Unigene Rn.1647, defined direction −, rat liver, oral once daily 28 days): − | Behavior of gene caused by administration of chemical substance, Gene No. 893 ((C), Unigene Rn.164817, defined direction +, rat liver, oral once daily 28 days): − | Behavior of gene caused by administration of chemical substance, Gene No. 6026 ((C), Unigene Rn.167685, defined direction −, rat liver, oral once daily 28 days): − | Behavior of gene caused by administration of chemical substance, Gene No. 154 ((C), Unigene Rn.185941, defined direction −, rat liver, oral once daily 28 days): + | Behavior of gene caused by administration of chemical substance, Gene No. 1993 ((C), Unigene Rn.18728, defined direction −, rat liver, oral once daily 28 days): + | Behavior of gene caused by administration of chemical substance, Gene No. 813 ((C), Unigene Rn.201760, defined direction +, rat liver, oral once daily 28 days): − | Behavior of gene caused by administration of chemical substance, Gene No. 2494 ((C), Unigene Rn.23969, defined direction +, rat liver, oral once daily 28 days): − | Behavior of gene caused by administration of chemical substance, Gene No. 2546 ((C), Unigene Rn.24561, defined direction −, rat liver, oral once daily 28 days): − | Behavior of gene caused by administration of chemical substance, Gene No. 3776 ((C), Unigene Rn.43232, defined direction −, rat liver, oral once daily 28 days): − | Behavior of gene caused by administration of chemical substance, Gene No. 3929 ((C), Unigene Rn.4620, defined direction +, rat liver, oral once daily 28 days): − | Behavior of gene caused by administration of chemical substance, Gene No. 1119 ((C), Unigene Rn.9757, defined direction +, rat liver, oral once daily 28 days): − | Behavior of gene caused by administration of chemical substance, Gene No. 6742 ((C), Unigene Rn.9779, defined direction +, rat liver, oral once daily 28 days): − | Behavior of gene caused by administration of chemical substance, Gene No. 5634 ((C), Unigene Rn.9862, defined direction −, rat liver, oral once daily 28 days): − | Behavior of gene caused by administration of chemical substance, Gene No. 5726 ((D), Unigene Rn.9939, defined direction −, rat liver, oral once daily 28 days): −

Clc1c(Cl)c(Cl)c(Cl)c(Cl)c1Cl [TS020, Hexachlorobenzene]
Behavior of gene caused by administration of chemical substance, Gene No. 4846 (gene group (A), Unigene No. Rn.144554, mRNA vs vehicle control group): − | Behavior of gene caused by administration of chemical substance, Gene No. 2026 [2]: − | Behavior of gene caused by administration of chemical substance, Gene No. 4218 [2]: − | Behavior of gene caused by administration of chemical substance, Gene No. 6182 (gene group (A), Unigene No. Rn.5834, mRNA vs vehicle control group): + | Behavior of gene caused by administration of chemical substance, Gene No. 5600 (gene group (A), Unigene No. Rn.9836, mRNA vs vehicle control group): − | Behavior of gene caused by administration of chemical substance, Gene No. 1494 (gene group (B), Unigene No. Rn.1430, mRNA vs vehicle control group): + | Behavior of gene caused by administration of chemical substance, Gene No. 2045 (gene group (B), Unigene No. Rn.19329, mRNA vs vehicle control group): + | Behavior of gene caused by administration of chemical substance, Gene No. 2203 (gene group (B), Unigene No. Rn.21240, mRNA vs vehicle control group): + | Behavior of gene caused by administration of chemical substance, Gene No. 533 (gene group (C), Unigene No. Rn.106184, mRNA vs vehicle control group): + | Behavior of gene caused by administration of chemical substance, Gene No. 725 (gene group (C), Unigene No. Rn.108075, mRNA vs vehicle control group): − | Behavior of gene caused by administration of chemical substance, Gene No. 1163 (gene group (C), Unigene No. Rn.11766, mRNA vs vehicle control group): − | Behavior of gene caused by administration of chemical substance, Gene No. 4973 (gene group (C), Unigene No. Rn.118529, mRNA vs vehicle control group): − | Behavior of gene caused by administration of chemical substance, Gene No. 4095 (gene group (C), Unigene No. Rn.119024, mRNA vs vehicle control group): − | Behavior of gene caused by administration of chemical substance, Gene No. 1334 [3]: − | Behavior of gene caused by administration of chemical substance, Gene No. 6620 [3]: − | Behavior of gene caused by administration of chemical substance, Gene No. 6303 (gene group (C), Unigene No. Rn.123063, mRNA vs vehicle control group): − | Behavior of gene caused by administration of chemical substance, Gene No. 5878 (gene group (C), Unigene No. Rn.143213, mRNA vs vehicle control group): − | Behavior of gene caused by administration of chemical substance, Gene No. 1131 (gene group (C), Unigene No. Rn.144946, mRNA vs vehicle control group): − | Behavior of gene caused by administration of chemical substance, Gene No. 1562 (gene group (C), Unigene No. Rn.14744, mRNA vs vehicle control group): − | Behavior of gene caused by administration of chemical substance, Gene No. 1741 (gene group (C), Unigene No. Rn.1647, mRNA vs vehicle control group): − | Behavior of gene caused by administration of chemical substance, Gene No. 893 (gene group (C), Unigene No. Rn.164817, mRNA vs vehicle control group): − | Behavior of gene caused by administration of chemical substance, Gene No. 6026 (gene group (C), Unigene No. Rn.167685, mRNA vs vehicle control group): − | Behavior of gene caused by administration of chemical substance, Gene No. 154 (gene group (C), Unigene No. Rn.185941, mRNA vs vehicle control group): − | Behavior of gene caused by administration of chemical substance, Gene No. 1993 (gene group (C), Unigene No. Rn.18728, mRNA vs vehicle control group): − | Behavior of gene caused by administration of chemical substance, Gene No. 813 (gene group (C), Unigene No. Rn.201760, mRNA vs vehicle control group): − | Behavior of gene caused by administration of chemical substance, Gene No. 2494 (gene group (C), Unigene No. Rn.23969, mRNA vs vehicle control group): − | Behavior of gene caused by administration of chemical substance, Gene No. 2546 (gene group (C), Unigene No. Rn.24561, mRNA vs vehicle control group): − | Behavior of gene caused by administration of chemical substance, Gene No. 3776 (gene group (C), Unigene No. Rn.43232, mRNA vs vehicle control group): − | Behavior of gene caused by administration of chemical substance, Gene No. 3929 (gene group (C), Unigene No. Rn.4620, mRNA vs vehicle control group): − | Behavior of gene caused by administration of chemical substance, Gene No. 1119 (gene group (C), Unigene No. Rn.9757, mRNA vs vehicle control group): − | Behavior of gene caused by administration of chemical substance, Gene No. 6742 (gene group (C), Unigene No. Rn.9779, mRNA vs vehicle control group): − | Behavior of gene caused by administration of chemical substance, Gene No. 5634 (gene group (C), Unigene No. Rn.9862, mRNA vs vehicle control group): − | Behavior of gene caused by administration of chemical substance, Gene No. 5726 (gene group (D), Unigene No. Rn.9939, mRNA vs vehicle control group): −
